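Where inhibition never reached the appropriate level, the endpoint shown equals the highest concentration tested. Otherwise, values were interpolated linearly from a five-concentration, 48-hour dose response in 96-well plates. Abbreviation: GI50, concentration required for 50% inhibition of growth. TGI marks complete inhibition of growth.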
How the values were obtained:
Experiment in all cases: inhibition of tumour cell growth, NCI panel, 48 h
786-0 renal = tested on: 786-0 renal
A498 renal = tested on: A498 renal
A549 NSCLC = tested on: A549 NSCLC
ACHN renal = tested on: ACHN renal
BT-549 breast = tested on: BT-549 breast
CAKI-1 renal = tested on: CAKI-1 renal
CCRF-CEM leukemia = tested on: CCRF-CEM leukemia
COLO 205 colon = tested on: COLO 205 colon
DU-145 prostate = tested on: DU-145 prostate
EKVX NSCLC = tested on: EKVX NSCLC
HCC-2998 colon = tested on: HCC-2998 colon
HCT-116 colon = tested on: HCT-116 colon
HCT-15 colon = tested on: HCT-15 colon
HL-60(TB) leukemia = tested on: HL-60(TB) leukemia
HOP-62 NSCLC = tested on: HOP-62 NSCLC
HOP-92 NSCLC = tested on: HOP-92 NSCLC
HS 578T breast = tested on: HS 578T breast
HT29 colon = tested on: HT29 colon
IGROV1 ovarian = tested on: IGROV1 ovarian
K-562 leukemia = tested on: K-562 leukemia
KM12 colon = tested on: KM12 colon
LOX IMVI melanoma = tested on: LOX IMVI melanoma
M14 melanoma = tested on: M14 melanoma
MALME-3M melanoma = tested on: MALME-3M melanoma
MCF7 breast = tested on: MCF7 breast
MDA-MB-231 breast = tested on: MDA-MB-231 breast
MDA-MB-435 = tested on: MDA-MB-435
MDA-MB-468 breast = tested on: MDA-MB-468 breast
MOLT-4 leukemia = tested on: MOLT-4 leukemia

Compound: N/C(=N\c1nc2ccccc2s1)NC(=O)Nc1ccccc1F
- GI50 (786-0 renal): 6.41 µM
- TGI (786-0 renal): 22 µM
- GI50 (A498 renal): 17.8 µM
- TGI (A498 renal): 34.1 µM
- GI50 (A549 NSCLC): 0.955 µM
- TGI (A549 NSCLC): 26.6 µM
- GI50 (ACHN renal): 2.45 µM
- TGI (ACHN renal): 20.9 µM
- GI50 (BT-549 breast): 0.477 µM
- TGI (BT-549 breast): 26 µM
- GI50 (CAKI-1 renal): 0.525 µM
- TGI (CAKI-1 renal): 15.9 µM
- GI50 (CCRF-CEM leukemia): 0.694 µM
- TGI (CCRF-CEM leukemia): > 100 µM
- GI50 (COLO 205 colon): 1.27 µM
- TGI (COLO 205 colon): 10.1 µM
- GI50 (DU-145 prostate): 2.85 µM
- TGI (DU-145 prostate): 15.6 µM
- GI50 (EKVX NSCLC): 0.526 µM
- TGI (EKVX NSCLC): 67.2 µM
- GI50 (HCC-2998 colon): 1.68 µM
- TGI (HCC-2998 colon): 23.1 µM
- GI50 (HCT-116 colon): 0.462 µM
- TGI (HCT-116 colon): 18.5 µM
- GI50 (HCT-15 colon): 0.434 µM
- TGI (HCT-15 colon): > 100 µM
- GI50 (HL-60(TB) leukemia): 0.385 µM
- TGI (HL-60(TB) leukemia): 13.6 µM
- GI50 (HOP-62 NSCLC): 0.829 µM
- TGI (HOP-62 NSCLC): 15.6 µM
- GI50 (HOP-92 NSCLC): 6.33 µM
- TGI (HOP-92 NSCLC): 24.5 µM
- GI50 (HS 578T breast): 0.513 µM
- TGI (HS 578T breast): 19.5 µM
- GI50 (HT29 colon): 0.369 µM
- TGI (HT29 colon): 10.1 µM
- GI50 (IGROV1 ovarian): 1 µM
- TGI (IGROV1 ovarian): 25.2 µM
- GI50 (K-562 leukemia): 0.307 µM
- TGI (K-562 leukemia): > 100 µM
- GI50 (KM12 colon): 0.475 µM
- TGI (KM12 colon): 37.6 µM
- GI50 (LOX IMVI melanoma): 0.62 µM
- TGI (LOX IMVI melanoma): 19.8 µM
- GI50 (M14 melanoma): 0.4 µM
- TGI (M14 melanoma): 20.8 µM
- GI50 (MALME-3M melanoma): 1.21 µM
- TGI (MALME-3M melanoma): 22.5 µM
- GI50 (MCF7 breast): 0.424 µM
- TGI (MCF7 breast): 20.5 µM
- GI50 (MDA-MB-231 breast): 0.724 µM
- TGI (MDA-MB-231 breast): 21.2 µM
- GI50 (MDA-MB-435): 0.231 µM
- TGI (MDA-MB-435): 0.68 µM
- GI50 (MDA-MB-468 breast): 0.817 µM
- TGI (MDA-MB-468 breast): 3.42 µM
- GI50 (MOLT-4 leukemia): 0.57 µM
- TGI (MOLT-4 leukemia): 69.8 µM
